From ChEMBL document CHEMBL5034036, “Aryloxy Pivaloyloxymethyl Prodrugs as Nucleoside Monophosphate Prodrugs” (J Med Chem, 2021)

What was measured:
A549 [1] = assay: Cytotoxicity against human A549 cells after 48 hrs measured by MTT assay; assay type: functional, cell-based; conditions: A549, 48 h
MCF7 [2] = assay: Cytotoxicity against human MCF7 cells assessed as inhibition of cell proliferation measured after 48 hrs by MTT assay; assay type: functional, cell-based; conditions: MCF7, 48 h
MCF7 [3] = assay: Cytotoxicity against human MCF7 cells assessed as inhibition of cell proliferation measured after 24 hrs by MTT assay; assay type: functional, cell-based; conditions: MCF7, 24 h
A549 [4] = assay: Cytotoxicity against human A549 cells after 24 hrs measured by MTT assay; assay type: functional, cell-based; conditions: A549, 24 h
[5] = Drug metabolism in human serum assessed as metabolite B formation by 31P-NMR analysis; assay type: ADME, cell-free
Liver carboxylesterase = molecular target: T1, Liver carboxylesterase (Sus scrofa, UniProt Q29550); assay: Stability in porcine liver esterase assessed as intact compound measured by NMR analysis; assay type: ADME; conditions: pig
T1 sequence (Q29550 whole entry): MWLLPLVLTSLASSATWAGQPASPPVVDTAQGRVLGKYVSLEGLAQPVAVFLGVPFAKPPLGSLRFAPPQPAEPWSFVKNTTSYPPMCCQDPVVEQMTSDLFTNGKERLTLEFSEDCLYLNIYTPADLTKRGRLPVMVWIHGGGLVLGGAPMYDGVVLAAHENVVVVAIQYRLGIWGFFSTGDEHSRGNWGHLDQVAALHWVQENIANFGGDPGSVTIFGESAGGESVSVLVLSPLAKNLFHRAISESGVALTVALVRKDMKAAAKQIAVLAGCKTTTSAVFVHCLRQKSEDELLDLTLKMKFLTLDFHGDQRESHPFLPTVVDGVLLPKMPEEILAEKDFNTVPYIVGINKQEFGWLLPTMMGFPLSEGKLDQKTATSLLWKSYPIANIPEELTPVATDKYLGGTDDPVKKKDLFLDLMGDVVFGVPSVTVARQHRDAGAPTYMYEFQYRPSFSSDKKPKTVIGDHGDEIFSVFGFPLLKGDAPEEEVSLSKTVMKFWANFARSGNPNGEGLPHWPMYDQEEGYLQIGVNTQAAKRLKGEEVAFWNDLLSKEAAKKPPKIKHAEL

[6] = Serum stability of the compound in human serum assessed as half life measured by 31P-NMR analysis; assay type: ADME, cell-free
[7] = Drug metabolism assessed as recombinant carboxypeptidase Y-mediated metabolite formation measured measured by 31P-NMR analysis; assay type: ADME; conditions: saccharomyces cerevisiae

| SMILES | IC50 (A549 [1]) [µM] | IC50 (MCF7 [2]) [µM] | IC50 (MCF7 [3]) [µM] | IC50 (A549 [4]) [µM] | Drug metabolism [5] | Stability (Liver carboxylesterase) | half-life [6] [h] | Drug metabolism [7] |
| --- | --- | --- | --- | --- | --- | --- | --- | --- |
| COC(=O)[C@H](C)NP(=O)(OC[C@H]1O[C@@H](n2cc(F)c(=O)[nH]c2=O)C[C@@H]1O)Oc1ccccc1 (stereo partly drawn) | 36 | 84.8 | > 100 | 69.5 | – | – | – | – |
| CC(C)(C)C(=O)OCOP(=O)(OC[C@H]1O[C@@H](n2cc(F)c(=O)[nH]c2=O)C[C@@H]1O)Oc1ccccc1 (stereo partly drawn) | – | 13.1 | 63.6 | – | Metabolite_Detected | Stable | ≥ 12 | Metabolite_Notdetected |
| CC(C)(C)C(=O)OCOP(=O)(OC[C@H]1O[C@@H](n2cc(F)c(=O)[nH]c2=O)C[C@@H]1O)Oc1cccc2ccccc12 (stereo partly drawn) | 34.5 | 35.5 | 28.8 | 52.5 | – | – | – | – |
| O=c1[nH]c(=O)n([C@H]2C[C@H](O)[C@@H](CO)O2)cc1F [FLOXURIDINE] | > 100 | 46.9 | > 100 | > 100 | – | – | – | – |
